Measured values from ChEMBL document CHEMBL3808292, “Synthesis and biological evaluation of 5,7-dihydroxyflavanone derivatives as antimicrobial agents” (Bioorg Med Chem Lett, 2016).
Converted amounts (≈) assume the structure as drawn.

Columns and labels:
[1] = test system: Vibrio cholerae; assay: Antimicrobial activity against Vibrio cholerae 0395N1 after 24 hrs by spectrophotometric method; type: functional; conditions: 0395N1, 24 h
[2] = test system: Staphylococcus aureus; assay: Antimicrobial activity against Staphylococcus aureus ATCC 33807 after 24 hrs by spectrophotometric method; type: functional; conditions: ATCC 33807, 24 h
[3] = test system: Escherichia coli; assay: Antimicrobial activity against Escherichia coli BW25113 after 24 hrs by spectrophotometric method; type: functional; conditions: BW25113, 24 h
[4] = test system: Pseudomonas aeruginosa; assay: Antimicrobial activity against Pseudomonas aeruginosa PAO1 after 24 hrs by spectrophotometric method; type: functional; conditions: PAO1, 24 h
[5] = test system: Saccharomyces cerevisiae; assay: Antifungal activity against Saccharomyces cerevisiae INVSc1 after 24 hrs by spectrophotometric method; type: functional; conditions: INVSc1, 24 h
[6] = test system: Bacillus cereus; assay: Antimicrobial activity against Bacillus cereus 10987 after 24 hrs by spectrophotometric method; type: functional; conditions: Bacillus cereus, 10987, 24 h
[7] = test system: HepG2; assay: (§1) Cytotoxicity against human HepG2 cells assessed as cell viability at 50 uM after 24 hrs by MTS assay; type: cell-based; conditions: hepg2, 24 h, 50 µM
[8] = test system: Bacillus anthracis; assay: Antimicrobial activity against Bacillus anthracis delta sterne after 24 hrs by spectrophotometric method; type: functional
[9] = test system: Bacillus subtilis; assay: Antimicrobial activity against Bacillus subtilis 1012 after 24 hrs by spectrophotometric method; type: functional; conditions: Bacillus subtilis, 1012, 24 h
[10] = Aqueous solubility of compound at 50 uM; type: physicochemical; conditions: buffer
[11] = test system: HepG2; assay: Cytotoxicity against human HepG2 cells assessed as cell viability after 24 hrs by MTS assay; type: cell-based; conditions: for Activity: human, hepg2, 24 h
[12] = Aqueous solubility of compound; type: physicochemical; conditions: buffer
[13] = as §1; type: cell-based; conditions: HepG2 cells, read-out: Activity
[14] = Cytotoxicity against human HepG2 cells assessed as cell viability at 50 uM after 6 hrs by MTS assay; type: cell-based; conditions: read-out: Activity

Row | Structure (SMILES) | MIC [1] | MIC [2] | MIC [3] | MIC [4] | MIC [5] | MIC [6] | Activity [7] | MIC [8] | MIC [9] | solubility [10] | IC50 ([11]; Homo sapiens, HepG2, 24 h) | Activity [11] | solubility [12] | viability at 24 h, 50 µM [13] | viability at 6 h, 50 µM [14]
1 | O=C1CC(c2cc(F)c(F)c(F)c2)Oc2cc(O)cc(O)c21 (centres undefined) | 1000 µM (≈ 310 µg/mL) | 1000 µM (≈ 310 µg/mL) | 1000 µM (≈ 310 µg/mL) | 1000 µM (≈ 310 µg/mL) | 125 µM (≈ 38.8 µg/mL) | 1000 µM (≈ 310 µg/mL) | Non-toxic | 1000 µM (≈ 310 µg/mL) | 1000 µM (≈ 310 µg/mL) | soluble | 95 µM | Dose-dependent effect | 500 µM (≈ 155 µg/mL) |  | 
2 | O=C1CC(c2ccc(F)c(F)c2)Oc2cc(O)cc(O)c21 (centres undefined) | 125 µM (≈ 36.5 µg/mL) | 125 µM (≈ 36.5 µg/mL) | 1000 µM (≈ 292 µg/mL) | 1000 µM (≈ 292 µg/mL) | 1000 µM (≈ 292 µg/mL) | 125 µM (≈ 36.5 µg/mL) | Non-toxic | 62.5 µM (≈ 18.3 µg/mL) | 125 µM (≈ 36.5 µg/mL) | soluble |  | Dose-dependent effect | 1000 µM (≈ 292 µg/mL) |  | 
3 | O=C1CC(c2cc(O)c(O)c(O)c2)Oc2cc(O)cc(O)c21 (centres undefined) | 1000 µM (≈ 304 µg/mL) | 1000 µM (≈ 304 µg/mL) | 1000 µM (≈ 304 µg/mL) | 1000 µM (≈ 304 µg/mL) | 1000 µM (≈ 304 µg/mL) | 1000 µM (≈ 304 µg/mL) | Non-toxic | 1000 µM (≈ 304 µg/mL) | 1000 µM (≈ 304 µg/mL) | soluble |  | Dose-dependent effect | 63 µM (≈ 19.2 µg/mL) |  | 
4 | O=C1CC(c2ccc(Cl)c(F)c2)Oc2cc(O)cc(O)c21 (centres undefined) | 125 µM (≈ 38.6 µg/mL) | 125 µM (≈ 38.6 µg/mL) | 250 µM (≈ 77.2 µg/mL) | 250 µM (≈ 77.2 µg/mL) | 250 µM (≈ 77.2 µg/mL) | 93.8 µM (≈ 28.9 µg/mL) | Non-toxic | 62.5 µM (≈ 19.3 µg/mL) | 125 µM (≈ 38.6 µg/mL) | soluble |  | Dose-dependent effect | 500 µM (≈ 154 µg/mL) |  | 
5 | O=C1CC(c2ccc(F)cc2)Oc2cc(O)cc(O)c21 (centres undefined) | 125 µM (≈ 34.3 µg/mL) | 125 µM (≈ 34.3 µg/mL) | 500 µM (≈ 137 µg/mL) | 500 µM (≈ 137 µg/mL) | 250 µM (≈ 68.6 µg/mL) | 125 µM (≈ 34.3 µg/mL) | Non-toxic | 125 µM (≈ 34.3 µg/mL) | 125 µM (≈ 34.3 µg/mL) | soluble |  | Dose-dependent effect | 1000 µM (≈ 274 µg/mL) |  | 
6 | O=C1CC(c2ccc(Cl)c(Cl)c2)Oc2cc(O)cc(O)c21 (centres undefined) | 125 µM (≈ 40.6 µg/mL) | 62.5 µM (≈ 20.3 µg/mL) | 125 µM (≈ 40.6 µg/mL) | 125 µM (≈ 40.6 µg/mL) | 31.2 µM (≈ 10.2 µg/mL) | 31.2 µM (≈ 10.2 µg/mL) |  | 31.2 µM (≈ 10.2 µg/mL) | 62.5 µM (≈ 20.3 µg/mL) | soluble |  | Dose-dependent effect | 63 µM (≈ 20.5 µg/mL) | 57% | 17%
